The target of assay [1] is HLA-A0201 (Homo sapiens, UniProt P04439, D140Y/D185E/D98H/E176V/E277Q/G131W/G231S/I119V/I121R/I166T/I218V/L300P/L318F/N151K/N90K/P208A/P217A/Q86G/Q94H/R138H/R169H/T345S). The experiment in a line: HLA class I stabilization assay, binding affinity to HLA-A0201.
In assay [2] the test system is lymphocytes from PBF-positive patients with osteosarcoma. The experiment in a line: Frequency analysis of antigenic peptide-specific CTLs (LD/MLPC, HLA-A0201/PBF tetramer staining). Type of assay: cell-based, human. The protocol:
Lymphocytes from five PBF-positive patients with osteosarcoma were subjected to ,mixed lymphocyte peptide culture under conditions of limiting dilution (limiting dilution/mixed lymphocyte peptide culture; LD/MLPC) to induce peptide-specific CTLs (Cancer Sci., 2008, 99:368-375, which is incorporated herein by reference). Regarding two patients: Patient Nos. 1 ,and 2, 50 ml of peripheral blood was collected to isolate peripheral blood mononuclear cells (PBMCs). PBMCs were cultured for 60 minutes at room temperature in AIM-V medium (Invitrogen) containing 1% human serum and supplemented with 50 μg/ml of the peptide shown in SEQ ID NO:4. PBMCs which were pulsed with the peptide were plated at 2×10^5 cells/200 μl/well on a U-bottomed 96-well microtiter plate and cultured in AIM-V medium containing 10% human serum, 20 U/ml IL-2, and 10 ng/ml IL-7. Seven days after the culture was started, half of the cultured medium in each well was replaced with AIM-V medium containing IL-2, IL-7, and the peptide shown in SEQ ID NO:4 in order to perform the second stimulation. Cells on 14 to 21 days after the culture was started were used for frequency analysis with a tetramer.
Regarding three patients: Patient Nos. 3, 4, and 5, CD8-positive cells were isolated from PBMCs using magnetic anti-CD8 microbeads (Miltenyi Biotec). CD8-positive cells were pulsed for 60 minutes with the peptide shown in SEQ ID NO:4 and inactivated by radiation. 1.0×10^5 to 2.1×10^5 CD8-positive cells/well were cultured on a 48-well microtiter plate using AIM-V medium containing 10% human serum, 20 U/ml IL-2, and 10 ng/ml IL-7, together with 2×10^5 to 5×10^5 cells/well of irradiated, peptide-pulsed CD8-positive cells. After 7 days of the culture, the irradiated peptide-pulsed CD8-positive cells were added as described above, in order to perform the second stimulation. Cells on 13 to 23 days after the culture was started were used for frequency analysis with a tetramer. A PE-labeled HLA-A0201/PBF tetramer (MBL) which was prepared using the peptide shown in SEQ ID NO:4 was used for the analysis.
An FITC-labeled HLA-A0201/HIV tetramer (MBL) which was prepared using an HIV-derived peptide was used as negative control. Some of the lymphocytes which were cultured using the LD/MLPC method were cultured at room temperature for 15 minutes with the PE-labeled HLA-A0201/PBF tetramer or with the FITC-labeled HLA-A0201/HIV tetramer (10 nM each, in 25 μl of PBS), followed by staining. Further, a PE-Cy5-labeled anti-CD8 antibody ,eBioscience) was added and incubated for 15 minutes, followed by staining. Then, cells were washed twice with PBS, fixed in 0.5% formalin, and analyzed in a flow cytometer FACScan. Living cells which were stained both with the PE-Cy5-labeled anti-CD8 antibody and with the PE-labeled HLA-A0201/PBF tetramer were considered to be tetramer-positive and peptide-specific CTLs. The frequency of CTLs specific for a peptide shown in SEQ ID ,NO:4 was determined using the following equation: Frequency=the number of tetramer-positive wells/(the total number of the wells examined×the number of CD8-positive cells per well at the start of LD/MLPC). Of the five patients, three patients: Patient Nos. […], had frequencies of 5×10^−6, 2×10^−7, and 5×10^−7, respectively.

Where two headings read alike, the source gives them in different places.

With “RGYVYQGL [SEQ ID NO:6, reference compound]”, the “% MFI increase±standard deviation (SD)” value in assay [1] was 5.6±8.2%.

Turning to “SEQ ID NO:4: fragment peptide of tumor antigen protein PBF (papillomavirus binding factor) binding to HLA-A2 antigen; synthesized by the Fmoc method (ALPSFQIPV)”, the “Frequency of CTLs specific for the peptide” value in assay [2] (Patient No. 1) is <1 × 10^−6; in assay [2] (Patient No. 2), 5×10^−6; in assay [2] (Patient No. 3), 2×10^−7; in assay [2] (Patient No. 4), 5×10^−7; in assay [2] (Patient No. 5), <1 × 10^−7. The “Number of tetramer-positive wells” value in assay [2] (Patient No. 1, PBMCs, 18 wells tested, 200,000 initial cells per well, 25% CD8) was 0; in assay [2] (Patient No. 2, PBMCs, 46 wells tested, 200,000 initial cells per well, 24% CD8), 10; in assay [2] (Patient No. 3, CD8-positive cells, 56 wells tested, 210,000 initial cells per well, 99% CD8) it was 2; in assay [2] (Patient No. 4, CD8-positive cells, 36 wells tested, 150,000 initial cells per well, 99% CD8), 3; in assay [2] (Patient No. 5, CD8-positive cells, 103 wells tested, 100,000 initial cells per well, 99% CD8) it was 0. Besides, the “% MFI increase±standard deviation (SD)” value in assay [1] (triplicate, FITC-labeled anti-HLA-A2 antibody BB7.2, flow cytometry) is listed as 74.5±6.6%.

For the origin of these results see patent US9260499B2, “Tumor antigen peptide and use thereof” (SAPPORO MEDICAL UNIVERSITY, priority 2008, dated 2016).
